Experimental data taken from patent publication US11591355B2 (Peloton Therapeutics, Inc., priority 2017, dated 2023).

Legend:
Human CD73 = molecular target: T1, Human CD73 (Homo sapiens, UniProt P21589); test: CD73 Enzyme Assay; type: biochemical; details: 0.25 nM hCD73, 25 μM AMP, kinetic read at 360 nm; read-out: CD73 Enzyme Assay IC50
T1 construct: purchased R&D Systems; host or cells: CHO cells
T1 sequence (P21589 27-549): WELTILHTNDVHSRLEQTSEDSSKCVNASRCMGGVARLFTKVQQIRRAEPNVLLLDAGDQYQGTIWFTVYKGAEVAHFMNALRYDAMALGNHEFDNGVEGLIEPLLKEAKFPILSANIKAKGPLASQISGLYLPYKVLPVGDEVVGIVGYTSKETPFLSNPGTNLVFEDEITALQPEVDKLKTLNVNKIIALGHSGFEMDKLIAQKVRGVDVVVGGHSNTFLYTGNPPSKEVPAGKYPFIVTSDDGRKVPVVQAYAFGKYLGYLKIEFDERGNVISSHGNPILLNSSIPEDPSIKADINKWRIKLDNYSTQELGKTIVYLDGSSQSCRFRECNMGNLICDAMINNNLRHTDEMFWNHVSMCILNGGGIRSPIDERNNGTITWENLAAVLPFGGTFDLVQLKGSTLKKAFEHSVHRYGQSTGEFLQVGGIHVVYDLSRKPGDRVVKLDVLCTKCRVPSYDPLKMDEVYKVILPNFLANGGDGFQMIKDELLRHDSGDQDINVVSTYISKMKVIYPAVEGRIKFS

[1] = molecular target: T2, CD73 on U138 human neuroglioma cells (Homo sapiens, UniProt P21589); test: CD73 Cell-Based Assay; details: U138 cells, AMP substrate, 2 hours at 37° C., inorganic phosphate by malachite green
T2 construct: U138 cells were obtained from ATCC and cultured in DMEM with 10% FBS; host or cells: U138 human neuroglioma cells
T2 sequence (P21589 27-549): T1 sequence (P21589 27-549)
Procedure, shortened: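 Whole U138 cells washed free of phosphate were incubated with 200 μM AMP (mixture concentration before equal-volume addition) plus compound in HEPES-buffered saline, pH 7.4, for 2 h at 37 °C, 5% CO2. Adenosine-forming activity read as inorganic phosphate released into supernatant by malachite green.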

IC50 (Human CD73) [µM] | IC50 [1] [µM] | Compound
0.1 to 1 | 0.1 to 1 | O=P(O)(O)COC[C@H]1O[C@@H](n2cnc3c(NCc4ccccc4)cc(Cl)nc32)[C@H](O)[C@@H]1O [Compound 57, [(2R,3S,4R,5R)-5-[7-(benzylamino)-5-chloro-imidazo[4,5-b]pyridin-3-yl]-3,4-dihydroxy-tetrahydrofuran-2-yl]methoxymethylphosphonic acid]
0.1 to 1 | 0.1 to 1 | O=P(O)(O)COC[C@H]1O[C@@H](n2cnc3c(NC4CCc5ccccc54)ncnc32)[C@H](O)[C@@H]1O (some centres unmarked) [Compound 52]
< 0.01 | < 0.01 | O=P(O)(O)COC[C@H]1O[C@@H](n2ccc3c(NC4CC(F)(F)C4)nc(Cl)nc32)[C@H](O)[C@@H]1O [Compound 83, [(2R,3S,4R,5R)-5-[2-chloro-4-[(3,3-difluoro-cyclobutyl)amino]-pyrrolo[2,3-d]-pyrimidin-7-yl]-3,4-dihydroxy-tetrahydro-furan-2-yl]methoxy-methylphosphonic acid]
0.01 to 0.1 | 0.01 to 0.1 | CC(C)Nc1nc(Cl)nc2c1ccn2[C@@H]1O[C@H](CS(=O)(=O)CP(=O)(O)O)[C@@H](O)[C@H]1O [Compound 162, [(2S,3S,4R,5R)-5-[2-chloro-4-(isopropyl-amino)pyrrolo[2,3-d]-pyrimidin-7-yl]-3,4-dihydroxy-tetrahydro-furan-2-yl]methyl-sulfonylmethylphos-phonic acid]
< 0.01 | < 0.01 | CC(C)C#Cc1nc(NC2CCCC2)c2ccn([C@@H]3O[C@H](COCP(=O)(O)O)[C@@H](O)[C@H]3O)c2n1 [Compound 253, [(2R,3S,4R,5R)-5-[4-(cyclopentylamino)-2-(3-methylbut-1-ynyl)pyrrolo[2,3-d]-pyrimidin-7-yl]-3,4-dihydroxy-tetrahydro-furan-2-yl]methoxy-methylphosphonic acid]
0.01 to 0.1 | < 0.01 | C[C@@H](Nc1nc(Cl)nc2c1ccn2[C@@H]1O[C@H](COCP(=O)(O)O)[C@@H](O)[C@H]1O)c1cccc(F)c1 [Compound 82, [(2R,3S,4R,5R)-5-[2-chloro-4-[[(1R)-1-(3-fluorophenyl)ethyl]-amino]pyrrolo[2,3-d]-pyrimidin-7-yl]-3,4-dihydroxy-tetrahydro-furan-2-yl]methoxy-methylphosphonic acid]
0.1 to 1 | > 1 | Cn1cc(-c2nc(NCc3ccccc3)c3ncn([C@@H]4O[C@H](COCP(=O)(O)O)[C@@H](O)[C@H]4O)c3n2)cn1 [Compound 9, [(2R,3S,4R,5R)-5-[6-(benzylamino)-2-(1-methylpyrazol-4-yl)-purin-9-yl]-3,4-dihydroxy-tetrahydro-furan-2-yl]methoxy-methylphosphonic acid]
0.01 to 0.1 | 0.01 to 0.1 | O=P(O)(O)COC[C@H]1O[C@@H](n2ccc3c(N4CCOCC4)nc(Cl)nc32)[C@H](O)[C@@H]1O [Compound 100, [(2R,3S,4R,5R)-5-(2-chloro-4-morpholino-pyrrolo[2,3-d]-pyrimidin-7-yl)-3,4-dihydroxy-tetrahydro-furan-2-yl]methoxy-methylphosphonic acid]
0.01 to 0.1 | 0.01 to 0.1 | N#Cc1nc(N2CCC(F)(F)CC2)c2ccn([C@@H]3O[C@H](COCP(=O)(O)O)[C@@H](O)[C@H]3O)c2n1 [Compound 129, [(2R,3S,4R,5R)-5-[2-cyano-4-(4,4-difluoro-1-piperidyl)pyrrolo-[2,3-d]pyrimidin-7-yl]-3,4-dihydroxy-tetrahydrofuran-2-yl]-methoxymethylphos-phonic acid]
< 0.01 | < 0.01 | O=P(O)(O)COC[C@H]1O[C@@H](n2ccc3c(NC4CCC(F)(F)C4)nc(Cl)nc32)[C@H](O)[C@@H]1O (stereo partly drawn) [Compound 101, [(2R,3S,4R,5R)-5-[2-chloro-4-[(3,3-difluoro-cyclopentyl)amino]-pyrrolo[2,3-d]-pyrimidin-7-yl]-3,4-dihydroxy-tetrahydro-furan-2-yl]methoxy-methylphosphonic acid]
0.1 to 1 | 0.01 to 0.1 | C[C@H](Nc1nc(C#N)nc2c1ccn2[C@@H]1O[C@H](COCP(=O)(O)O)[C@@H](O)[C@H]1O)c1ccc(F)cn1 [Compound 146]
0.01 to 0.1 | 0.01 to 0.1 | O=P(O)(O)CS(=O)(=O)C[C@H]1O[C@@H](n2ccc3c(N4CC5CC5C4)nc(Cl)nc32)[C@H](O)[C@@H]1O (stereo partly drawn) [Compound 175, [(2S,3S,4R,5R)-5-[4-(3-azabicyclo[3.1.0]-hexan-3-yl)-2-chloro-pyrrolo[2,3-d]-pyrimidin-7-yl]-3,4-dihydroxy-tetrahydro-furan-2-yl]methyl-sulfonylmethylphos-phonic acid]
0.1 to 1 | 0.1 to 1 | CC(Nc1ncnc2c1ncn2[C@@H]1O[C@H](COCP(=O)(O)O)[C@@H](O)[C@H]1O)c1ccccc1 (stereo partly drawn) [Compound 18, [(2R,3S,4R,5R)-3,4-dihydroxy-5-[6-(1-phenylethylamino)purin-9-yl]tetrahydrofuran-2-yl]methoxymethylphosphonic acid]
< 0.01 | < 0.01 | O=P(O)(O)CS(=O)(=O)C[C@H]1O[C@@H](n2ccc3c(N4CCC(F)(F)C4)nc(Cl)nc32)[C@H](O)[C@@H]1O [Compound 164, [(2S,3S,4R,5R)-5-[2-chloro-4-(3,3-difluoro-pyrrolidin-1-yl)-pyrrolo[2,3-d]-pyrimidin-7-yl]-3,4-dihydroxy-tetrahydro-furan-2-yl]methyl-sulfonylmethylphos-phonic acid]
0.01 to 0.1 | < 0.01 | C[C@H](c1ccccc1)N(C)c1nc(Cl)nc2c1ncn2[C@@H]1O[C@H](COCP(=O)(O)O)[C@@H](O)[C@H]1O [Compound 104]
< 0.01 | < 0.01 | O=P(O)(O)COC[C@H]1O[C@@H](n2ncc3c(NC4CC5CC5C4)nc(Cl)nc32)[C@H](O)[C@@H]1O (stereo partly drawn) [Compound 279, [(2R,3S,4R,5R)-5-[4-(3-bicyclo[3.1.0]hexa-nylamino)-6-chloro-pyrazolo[3,4-d]-pyrimidin-1-yl]-3,4-dihydroxy-tetrahydro-furan-2-yl]methoxy-methylphosphonic acid]
< 0.01 | < 0.01 | C[C@@H](Nc1nc(Cl)nc2c1ccn2[C@@H]1O[C@H](COCP(=O)(O)O)[C@@H](O)[C@H]1O)c1ccc(Cl)cc1 [Compound 94, [(2R,3S,4R,5R)-5-[2-chloro-4-[[(1R)-1-(4-chlorophenyl)ethyl]-amino]pyrrolo[2,3-d]-pyrimidin-7-yl]-3,4-dihydroxy-tetrahydro-furan-2-yl]methoxy-methylphosphonic acid]
< 0.01 | < 0.01 | N#Cc1nc(NC2CC(F)(F)C2)c2cnn([C@@H]3O[C@H](CS(=O)(=O)CP(=O)(O)O)[C@@H](O)[C@H]3O)c2n1 [Compound 292, [(2S,3S,4R,5R)-5-[6-cyano-4-[(3,3-difluoro-difluorocyclobutyl)-amino]pyrazolo[3,4-d]-pyrimidin-1-yl]-3,4-dihydroxy-tetrahydro-furan-2-yl]methyl-sulfonylmethylphos-phonic acid]
< 0.01 | < 0.01 | CC(C)C(=O)OCOP(=O)(O)COC[C@H]1O[C@@H](n2ccc3c(NC4CCCC4)nc(Cl)nc32)[C@H](O)[C@@H]1O [Compound 194, [(2R,3S,4R,5R)-5-[2-chloro-4-(cyclopentyl-amino)pyrrolo[2,3-d]-pyrimidin-7-yl]-3,4-dihydroxy-tetrahydro-furan-2-yl]methoxy-methyl-(2-methyl-propanoyloxymeth-oxy)phosphinic acid]
